According to BindingDB's records for doi:10.1074/jbc.M113.453423 (Université Montpellier 1, 2013):
Where a SMILES comes first, the peptide text is derived from it. [ ]: non-standard residue; d: D form.

Legend:
Assay in all cases: GHS Ligand Binding Assay
[1] = molecular target: Growth hormone secretagogue receptor type 1 (Homo sapiens, UniProt Q92847)
Experimental: (§1) Titration experimentswere carried out with protein concentrations in the 10 nM protein concentration range and increasing ligand concentrations. […] Buffer contributions were systematically subtracted.

[2] = molecular target: Growth hormone secretagogue receptor type 1/Isoform 1B of Growth hormone secretagogue receptor type 1 (1B) (Homo sapiens, UniProt Q92847)
Experimental: as §1

[3] = molecular target: Dimer of Growth hormone secretagogue receptor type 1 (Homo sapiens, UniProt Q92847)
Experimental: as §1

Chain of Growth hormone secretagogue receptor type 1 (Q92847 whole entry): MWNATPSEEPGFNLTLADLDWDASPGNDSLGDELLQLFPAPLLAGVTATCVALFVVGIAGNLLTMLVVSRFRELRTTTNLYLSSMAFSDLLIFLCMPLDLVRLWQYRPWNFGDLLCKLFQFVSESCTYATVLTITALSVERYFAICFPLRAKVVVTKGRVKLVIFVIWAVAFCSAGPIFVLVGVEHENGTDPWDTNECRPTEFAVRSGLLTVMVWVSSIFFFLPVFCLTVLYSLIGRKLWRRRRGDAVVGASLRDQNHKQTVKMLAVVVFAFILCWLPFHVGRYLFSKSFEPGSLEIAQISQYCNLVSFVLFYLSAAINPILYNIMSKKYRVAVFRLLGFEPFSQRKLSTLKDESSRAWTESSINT
Chain of Dimer of Growth hormone secretagogue receptor type 1 (Q92847 whole entry): as above
Chain of Growth hormone secretagogue receptor type 1/Isoform 1B of Growth hormone secretagogue receptor type 1 (1B) (Q92847 whole entry, canonical isoform): as the sequence (Q92847 whole entry) above
Chain of Growth hormone secretagogue receptor type 1/Isoform 1B of Growth hormone secretagogue receptor type 1 (1B) (Q92847 as listed by the source): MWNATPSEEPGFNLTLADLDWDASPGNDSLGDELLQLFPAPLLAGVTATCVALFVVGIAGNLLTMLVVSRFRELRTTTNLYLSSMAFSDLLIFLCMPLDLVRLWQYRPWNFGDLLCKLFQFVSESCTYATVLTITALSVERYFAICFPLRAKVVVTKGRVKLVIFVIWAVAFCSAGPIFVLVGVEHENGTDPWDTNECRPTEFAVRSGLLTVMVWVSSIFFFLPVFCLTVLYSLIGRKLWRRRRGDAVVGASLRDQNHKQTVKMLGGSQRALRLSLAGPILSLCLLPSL

Compound	Ki [1]	Ki [2]	Ki [3]
COc1ccc(Cn2c(CCc3c[nH]c4ccccc34)nnc2C(Cc2c[nH]c3ccccc23)NC(=O)c2ccccn2)c(OC)c1 (configuration not stated) [JMV 3011]	8.3 nM	–	–
COc1ccc(Cn2c(CCc3ccccc3)nnc2C(Cc2c[nH]c3ccccc23)NC(=O)c2ccccn2)c(OC)c1 (configuration not stated) [JMV 3002]	9.2 nM	19.3 nM	9.9 nM
CC(C)C[C@H](NC(=O)[C@H](CC(C)C)NC(=O)[C@@H](Cc1c[nH]c2ccccc12)NC(=O)[C@H](Cc1ccccc1)NC(=O)[C@@H](Cc1c[nH]c2ccccc12)NC(=O)[C@H](CCC(N)=O)NC(=O)[C@@H](Cc1c[nH]c2ccccc12)NC(=O)[C@@H]1CCCN1C(=O)[C@H](CCCCN)NC(=O)[C@@H]1CCCN1C(=O)[C@H](N)CCCN=C(N)N)C(N)=O [Substance P [DArg1, DTrp5,7,9,  Leu11]] (H-[dR]PKP[dW]Q[dW]F[dW]LL-NH2)	294 nM	292 nM	286 nM
